Test results reported in patent US20140255432A1, “SILVESTROL, SILVESTROL ANALOGS AND USES THEREOF” (priority 2011, published 2014).

Assays:
lymphoma cell lines = experiment: IC50 against lymphoma cell lines; assay type: cell-based; conditions: Homo sapiens
Text: These include EBV^+ lymphoblastoid cell lines (LCL) derived from SCID mice engrafted with peripheral blood mononuclear cells (hu-PBL-SCID) from EBV-positive donors. (FIG. 1). This hu-PBL-SCID model is a spontaneous, preclinical model of EBV-driven lymphomagenesis that can be utilized to study the anti-tumor and immune surveillance activity of EBV-specific memory T cells. In vitro, the anti-proliferative effect of silvestrol against EBV+ LCLs (FIG. 2) is preceded by a loss of EBV latent membrane protein 1 (LMP1). In FIG. 2A, relative proliferation was determined. MTS assays were performed on three donors treated with silvestrol (2, 5, or 10 nM) or DMSO (control). The assays were performed on days 1, 3, and 5. In FIG. 2B, relative growth was determined. Viability assays were performed on cells from three donors treated with silvestrol (2, 5, or 10 nM) or DMSO (control). The assays were performed on days 1, 3, and 5. Viability was assessed by annexin/propidium iodide flow cytometry.

[1] = tested on: immune effector subsets (CD3+/CD4+, CD3+/CD8+, CD3-/CD56+); experiment: Irradiated LCL / autologous PBMC co-cultures, flow cytometry; assay type: cell-based, human; conditions: 14 days
Protocol: Lymphoblastoid cell lines (LCL) were derived in vivo by engrafting severe combined immune-deficient (SCID) mice (Taconic, Hudson N.Y.) with human peripheral blood mononuclear cells (PBMC) from a healthy EBV-positive donor as described (Rowe 1991; Baiocchi 1994). Co-cultures (Cocx) were created by mixing 5×10^4 LCL (either non-irradiated or irradiated with 14000 rad) per well with equal numbers of autologous PBMC in 96-well plates. Cultures were grown in the presence of 10 U/mL IL-2 and were given a single dose of silvestrol and cultured for 10-14 days.
(§1) Cells from irradiated or non-irradiated co-cultures were co-stained with LIVE/DEAD cell stain (Invitrogen, Grand Island, N.Y.) and hu-CD3-APC and either hu-CD4-PE, hu-CD-8-PE, hu-CD19-PE (BD Biosciences, San Diego, Calif.), or hu-CD56-PE (Beckman Coulter, Brea, Calif.). Live events were gathered by gating on cells negative for the LIVE/DEAD stain on an FC500 cytometer (Beckman Coulter). Cell viability was also measured by flow cytometry at 24, 72, and 120 hr using annexin-V-FITC and propidium iodide (PI) according to the manufacturer's instructions (BD Biosciences).
To explore the immune modulatory activity of silvestrol in EBV-LPD, in vitro co-cultures (CoCx) were used. These cultures were created by lethally irradiating LCL lines and mixing them at a ratio of 1:1 with PBMC from the same healthy donor from which the LCL was derived. The PBMC are activated and expand in response to the antigenic stimuli from the EBV-infected LCL (Rowe 1991; Baiocchi 1994; Mosier 1995). CoCx created using three LCL and their respective autologous PBMC were incubated in the presence of 10 U/mL IL-2 and treated with 0 (vehicle only), 2, 5, or 10 nM silvestrol for 14 days. Flow cytometric analysis was conducted. Cells were gated on Live events were gathered by gating on cells negative for the LIVE/DEAD stain. Data are expressed as percentage of viable population, relative to the vehicle CoCx condition, for total cells, CD3^+/CD4^+, CD3^+/C8^+, and CD3^−CD56^+ cells. Results shown are the averages from three individual CoCx. […] As the irradiated LCL were absent by this time, silvestrol allowed for expansion of the normal effector population following LCL exposure.

[2] = tested on: EBV-positive lymphoblastoid cell lines (LCL); experiment: Apoptosis/viability by annexin/PI flow cytometry; assay type: cell-based, human; conditions: 2-50 nM; 24, 72, 120 hr; p=0.006 averaged over doses and time points
Protocol: as §1
The direct anti-tumor activity of silvestrol in leukemia and lymphoma models has been document (Hwang 2004; Bordeleau 2008; Cencic 2009; Lucas 2009 Alinari 2011; Saradhi 2011) as well as silvestrol's increased cytotoxicity to malignant B cells compared to normal blood lymphocytes (Lucas 2009). However, activity of silvestrol has not previously been described in spontaneous EBV-transformed cell lines. Silvestrol's activity in fully transformed EBV-positive LCL derived from tumors of SCID mice engrafted with PBMC from EBV-seropositive donors was observed. Six of these EBV-LCL lines were plated in the presence of low concentrations of silvestrol (2-50 nM), and apoptosis (viability assessed by annexin/PI flow cytometry) (FIG. 2A) and proliferation (MTS assay) (FIG. 2B) were evaluated at 24, 72, and 120 hr. […]

[3] = tested on: EBV LMP-1 oncogene transcript; experiment: EBV LMP-1 oncogene transcript expression in LCL; assay type: cell-based, Epstein-Barr virus; conditions: three cell lines; days 1, 3, 5 (FIG. 46)
Text: FIG. 41 presents data regarding NK cytotoxicity of K562 cells. […] FIG. 42 presents data regarding the cytotoxicity of LCLs pretreated with BZLF 1. […] BZLF1 antigen pulsed LCLs promoted enhanced killing in untreated and silvestrol-treated CTLs. FIG. 43 presents data relating to CD4 IFNgamma release with LCL pretreated with BZLF1. […] FIG. 44 presents data relating to CD4 IFNgamma release with LCL pretreated with BZLF 1. […] FIG. 45 presents data relating to interleukin-6 induction by silvestrol. […] FIG. 46 presents data relating to a change in LMP-1 expression following silvestrol treatment. […] Three cell lines were examined on days 1, 3, and 5 following treatment. FIG. 47 presents data relating to a change in EBNA1 expression following silvestrol treatment. Three cell lines were examined on days 1, 3, and 5 following treatment.

## COC(=O)[C@H]1[C@@H](O)[C@@]2(O)c3c(OC)cc(O[C@@H]4O[C@@H]([C@H](O)CO)CO[C@H]4OC)cc3O[C@@]2(c2ccc(OC)cc2)[C@@H]1c1ccccc1 [silvestrol]
Lymphoma cell lines
  IC50: < 10 nM
[1]; 10 nM, 10 U/mL IL-2
  total number of cells expanded in CoCx: lower than in the vehicle controls
[1]; 2, 5, 10 nM
  CD4+ T helper cell population relative to untreated CoCx: mild decrease
  CD8+ cytotoxic T cell population relative to untreated CoCx: mild decrease
  CD56+ natural killer cell population relative to untreated CoCx: relative increase
[2]
  apoptosis vs. untreated control: Moderate but significant activity
[3]
  expression of the EBV LMP-1 oncogene transcript: decreased
